{"source": "patent US20130296273A1", "about": "“TREATMENT OF BLOOD CANCER” (Threshold Pharmaceuticals, Inc., priority 2010, published 2013)", "key": {"[1]": {"tested_on": "VEGFa secretion in 5T33vt cells", "experiment": "VEGFa secretion", "assay_type": "cell-based, murine", "method": "(§1) TH-302 (5 μM) decreased the accumulation of HIF1α in hypoxic RPMI-8226 cells. VEGFa secretion was reduced by TH-302 in 5T33vt cells. *p<0.05, **p<0.01, ***p<0.001, compared to 20% O2 (n=3).\n(§2) By employing a set of defined gas mixtures (0%, 1%, 1.25%, 1.5%, 2%, 3%, 20% O2) for drug treatment of the multiple myeloma cells, the oxygen concentration dependent activation of TH-302 was tested in RPMI-8226, LP-1, MMS1 and 5T33vt multiple myeloma cells. […] As the O2 concentration was reduced to 0%, the fraction of apoptotic cells increased to about 70-75%."}, "naive mice": {"tested_on": "naive mice", "experiment": "Toxicity in TH-302 treated naive mice", "assay_type": "in vivo, mouse", "settings": "compared to vehicle-treated naive mice"}, "[2]": {"tested_on": "anti-apoptotic and pro-apoptotic Bcl-2 family proteins", "experiment": "Immunoblotting of Bcl-2 family proteins, TH-302, bortezomib and combination", "assay_type": "cell-based", "method": "To further determine the mechanism of induction of apoptosis by this combination, the effect of TH-302, bortezomib and the combination on anti-apoptotic and pro-apoptotic Bcl-2 family proteins using immunoblotting was tested."}, "AML": {"tested_on": "AML", "experiment": "Clinical administration of TH-302 in advanced leukemia, AML patients", "assay_type": "in vivo", "method": "(§3) Clinical investigations were conducted to determine the safety, tolerability and clinically relevant disease responses of TH-302 in patients with acute leukemias, advanced phase chronic myelogenous leukemia (CML), high risk myelodysplastic syndromes, advanced myelofibrosis or relapsed/refractory chronic lymphocytic leukemia (CLL). TH-302 was administered as a 30 to 60 minute intravenous infusion daily for 5 days followed by 2 weeks off therapy. As needed, the 5 days of dosing could be spread out over 8 days. Patients who successfully completed a 3-week treatment cycle without evidence of significant treatment-related toxicity or progressive disease were continued on treatment and could receive treatment for up to six cycles.\n(§4) Twenty-one patients have been treated in the study at TH-302 daily doses ranging from 120 mg/m^2 to 460 mg/m^2. All subjects had either AML or ALL and had generally received multiple prior therapies for their disease prior to enrolling for the study."}, "[3]": {"tested_on": "cyclin D1/2/3, CDK4/6, p21cip-1, p27kip-1, pRb, CDK2 in RPMI-8226, LP-1, MMS1 and Karpas-707 multiple myeloma cells", "experiment": "Western blotting of cell cycle machinery", "assay_type": "cell-based, human"}, "HIF1α in RPMI-8226 cells": {"tested_on": "HIF1α in RPMI-8226 cells", "experiment": "HIF1α accumulation/expression in hypoxic cells", "assay_type": "cell-based, human", "method": "as §1, §2"}, "[4]": {"tested_on": "human and murine multiple myeloma cells", "experiment": "Flow cytometry analysis of apoptosis / toxicity in multiple myeloma cells", "assay_type": "cell-based", "settings": "also RPMI-8226, 5T33vt, MMS1, Karpas-707 cells", "method": "as §2"}, "[5]": {"tested_on": "Karpas-707, LP-1, MMS1, and RPMI-8226 cells", "experiment": "Cell cycle analysis in multiple myeloma cell lines under hypoxia", "assay_type": "cell-based, human", "settings": "hypoxic conditions; Karpas-707, LP-1, MMS1, RPMI-8226 cells"}, "5T33MMvv mouse": {"tested_on": "5T33MMvv mouse", "experiment": "5T33MMvv mouse multiple myeloma model, prophylactic treatment for 3 weeks", "assay_type": "in vivo", "settings": "for multiple myeloma cell apoptosis vs vehicle-treated mice: bone marrow", "method": "5T33MMvv mice were treated prophylactically with TH-302 for 3 weeks. From day 1, the following were observed. […] Therefore, the cancer cytotoxic effect of TH-302 was associated with the hypoxic nature of multiple myeloma cells in the bone marrow."}, "[6]": {"tested_on": "BCL-2, BCL-xL, cleaved caspase-3, 8, 9 and PARP", "experiment": "Western blotting of apoptosis proteins", "assay_type": "cell-based"}, "LP-1 cells": {"tested_on": "LP-1 cells", "experiment": "Apoptosis in LP-1 cells", "assay_type": "cell-based, human", "method": "as §1, §2"}, "5T33vt cells": {"tested_on": "5T33vt cells", "experiment": "Cell cycle analysis in 5T33vt cells", "assay_type": "cell-based, murine", "settings": "hypoxia selective manner"}, "ALL": {"tested_on": "ALL", "experiment": "Clinical administration of TH-302 in advanced leukemia, ALL patients", "assay_type": "in vivo", "settings": "one ALL patient", "method": "as §3, §4"}, "[7]": {"tested_on": "RPMI-8226, LP-1, MMS1 and 5T33vt multiple myeloma cells", "experiment": "Oxygen concentration dependent activation of TH-302 (defined gas mixtures)", "assay_type": "cell-based, human and murine", "method": "as §2"}}, "note": "Entries after “also recorded” stand apart in the source; their conditions may differ.", "data": [{"smiles": "Cn1c(COP(=O)(NCCBr)NCCBr)cnc1[N+](=O)[O-]", "note": "[TH-302]", "values": [{"measurement": "VEGFa secretion", "setting": "[1]", "value": "reduced; also recorded: significantly decreased"}, {"measurement": "toxicity in terms of body weight, HGB, RBC, WBC, HCT and MVD", "setting": "naive mice", "value": "no substantial toxicity"}, {"measurement": "anti-apoptotic Mcl-1", "setting": "[2]", "value": "decreased"}, {"measurement": "expression of anti-apoptotic Bcl-2 and Bcl-xL", "setting": "[2]", "value": "decreased"}, {"measurement": "pro-apoptotic BH-3 member Noxa and cleavage of BID", "setting": "[2]", "value": "induced"}, {"measurement": "platelet count", "setting": "AML; one AML patient started at 120 mg/m^2/day", "value": "gradually improving"}, {"measurement": "peripheral blast count", "setting": "AML; one AML patient started at 120 mg/m^2/day, after each cycle", "value": "decreased"}, {"measurement": "disease response", "setting": "AML; one AML patient, 240 mg/m^2/day, after cycle 1", "value": "stable disease"}, {"measurement": "disease response", "setting": "AML; two AML patients, 120 mg/m^2/day, iv daily for 5 days of 21 day cycle", "value": "stable disease"}, {"measurement": "CDK2 expression", "setting": "[3]", "value": "remained undisturbed"}, {"measurement": "cyclin D1/2/3, CDK4/6, p21, p27 and pRb expression", "setting": "[3]", "value": "down-regulating"}, {"measurement": "accumulation of HIF1α", "setting": "HIF1α in RPMI-8226 cells; hypoxic RPMI-8226 cells, TH-302 5 μM", "value": "decreased"}, {"measurement": "expression of HIF1α", "setting": "HIF1α in RPMI-8226 cells; hypoxic condition, similar in 5T33vt, LP-1, Karpas-707 cells", "value": "reduced"}, {"measurement": "apoptosis", "setting": "[4]; hypoxic conditions, flow cytometry", "value": "induced dose-dependent apoptosis"}, {"measurement": "toxicity in normoxic conditions", "setting": "[4]; normoxic conditions, even at high concentrations", "value": "very low toxicity"}, {"measurement": "cell cycle arrest", "setting": "[5]", "value": "induced Go/G1 cell cycle arrest"}, {"measurement": "microvessel density (MVD) in the bone marrow vs vehicle-treated mice", "setting": "5T33MMvv mouse; 12.5 mg/kg", "value": 19, "unit": "% decrease"}, {"measurement": "paraprotein secretion vs vehicle-treated mice", "setting": "5T33MMvv mouse; 12.5 mg/kg", "value": 32, "unit": "% decrease"}, {"measurement": "multiple myeloma cell apoptosis vs vehicle-treated mice", "setting": "5T33MMvv mouse; 12.5 mg/kg", "value": 2.5, "unit": "fold"}, {"measurement": "microvessel density (MVD) in the bone marrow vs vehicle-treated mice", "setting": "5T33MMvv mouse; 25 mg/kg", "value": 20, "unit": "% decrease"}, {"measurement": "paraprotein secretion vs vehicle-treated mice", "setting": "5T33MMvv mouse; 25 mg/kg", "value": 77, "unit": "% decrease"}, {"measurement": "multiple myeloma cell apoptosis vs vehicle-treated mice", "setting": "5T33MMvv mouse; 25 mg/kg", "value": 2.1, "unit": "fold"}, {"measurement": "microvessel density (MVD) in the bone marrow vs vehicle-treated mice", "setting": "5T33MMvv mouse; 50 mg/kg", "value": 26, "unit": "% decrease"}, {"measurement": "paraprotein secretion vs vehicle-treated mice", "setting": "5T33MMvv mouse; 50 mg/kg", "value": 54, "unit": "% decrease"}, {"measurement": "multiple myeloma cell apoptosis vs vehicle-treated mice", "setting": "5T33MMvv mouse; 50 mg/kg", "value": 3.1, "unit": "fold"}, {"measurement": "anti-apoptotic proteins BCL-2 and BCL-xL", "setting": "[6]", "value": "down-regulation"}, {"measurement": "expression of cleaved proapoptotic protein caspase-3, 8, 9 and PARP", "setting": "[6]", "value": "up-regulation"}, {"measurement": "apoptosis", "setting": "LP-1 cells; LP-1 cells under hypoxia, dose dependence", "value": "triggered specific apoptosis in a dose-dependent manner"}, {"measurement": "apoptosis", "setting": "LP-1 cells; LP-1 cells, TH-302 5 μM", "value": "induced apoptosis"}, {"measurement": "cell cycle arrest", "setting": "5T33vt cells", "value": "induced Go/G1 cell cycle arrest"}, {"measurement": "disease response", "setting": "ALL; 170 mg/m^2/day, bone marrow biopsy after cycle 1", "value": "partial response"}, {"measurement": "disease response", "setting": "ALL; 240 mg/m^2/day, after cycle 1", "value": "stable disease"}, {"measurement": "disease response", "setting": "ALL; 330 mg/m^2/day, after cycle 1", "value": "stable disease"}, {"measurement": "fraction of apoptotic cells", "setting": "[7]; O2 concentration reduced to 0%", "value": "70-75%"}, {"measurement": "threshold of activating TH-302", "setting": "[7]; gas mixtures 0%, 1%, 1.25%, 1.5%, 2%, 3%, 20% O2", "value": "< 1.5", "unit": "% O2"}]}, {"smiles": "CC(C)C[C@H](NC(=O)[C@H](Cc1ccccc1)NC(=O)c1cnccn1)B(O)O", "note": "[bortezomib, reference compound]", "values": [{"measurement": "anti-apoptotic Mcl-1", "setting": "[2]", "value": "accumulated"}, {"measurement": "expression of anti-apoptotic Bcl-2 and Bcl-xL", "setting": "[2]", "value": "decreased"}, {"measurement": "pro-apoptotic BH-3 member Noxa and cleavage of BID", "setting": "[2]", "value": "induced"}]}]}
